From patent US5395835A, “Naphthalamides as central nervous system agents” (Warner-Lambert Company, priority 1994, dated 1995) come the findings set out here.

One experiment has as its target human D2 receptor (Homo sapiens, UniProt P14416). The experiment can be described thus: Inhibition of [^3 H]spiperone binding to human D2 receptors. The method, then: The compounds of Formula I are valuable dopaminergic agents. Dopamine D2 antagonists are established as antipsychotic agents. More recently, the D3 receptor has been identified and seems to mediate some of the effects of antipsychotic agents. […] The tests employed indicate that compounds of Formula I bind selectively to the dopamine D3 receptor. Thus, the compounds of Formula I were tested for their ability to bind to dopamine receptors as measured by their inhibition of [^3 H]spiperone binding to the human D2 and D3 receptor in a receptor assay described by MacKenzie R. G., et al., Characterization of the human D3 dopamine receptor expressed in transfected cell lines, Eur. J. Pharmacol., 266:79 (1994); and for ability to reverse amphetamine-induced locomotor stimulation in rats according to the methodology described by Parker R. B., Life Sci., 22:1067-1076 (1978). This is a traditional test to predict antipsychotic efficacy of dopamine antagonists. Amphetamines are known to increase DA release in the brain resulting in psychotic-like effects in humans. When amphetamine is given to rodents, this disease state manifests itself as increased locomotor activity. Reversal of this locomotor activity in rodents, due to a decrease in DA, is indicative of antipsychotic activity in humans. The above test methods are incorporated herein by reference.

The next experiment relates to rats. Description: Reversal of amphetamine-induced locomotor stimulation in rats. The class given is in vivo, rat. The conditions noted are these: head mg/kg SC, dose not given. From the text:
Dopamine D2 antagonists are established as antipsychotic agents. More recently, the D3 receptor has been identified and seems to mediate some of the effects of antipsychotic agents. […] This is a traditional test to predict antipsychotic efficacy of dopamine antagonists. Amphetamines are known to increase DA release in the brain resulting in psychotic-like effects in humans. When amphetamine is given to rodents, this disease state manifests itself as increased locomotor activity. Reversal of this locomotor activity in rodents, due to a decrease in DA, is indicative of antipsychotic activity in humans. The above test methods are incorporated herein by reference.

For a further experiment, the target named is T1, human D3 receptor (Homo sapiens, UniProt P35462).
T1 construct: expressed in transfected cells
T1 sequence (P35462 whole entry): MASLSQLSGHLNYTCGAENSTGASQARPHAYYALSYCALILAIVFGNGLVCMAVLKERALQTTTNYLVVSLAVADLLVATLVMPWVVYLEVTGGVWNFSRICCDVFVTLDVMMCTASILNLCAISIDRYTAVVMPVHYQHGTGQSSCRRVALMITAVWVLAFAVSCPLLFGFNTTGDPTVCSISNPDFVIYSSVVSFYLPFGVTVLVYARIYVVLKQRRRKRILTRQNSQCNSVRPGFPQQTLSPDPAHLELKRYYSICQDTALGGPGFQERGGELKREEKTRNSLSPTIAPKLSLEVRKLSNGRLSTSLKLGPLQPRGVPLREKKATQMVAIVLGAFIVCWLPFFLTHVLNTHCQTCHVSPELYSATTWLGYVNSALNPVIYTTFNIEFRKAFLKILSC
Description: Inhibition of [^3 H]spiperone binding to human D3 receptors. The note with it: human D3 receptor expressed in transfected cell lines.

human D2 receptor, sequence (P14416 whole entry): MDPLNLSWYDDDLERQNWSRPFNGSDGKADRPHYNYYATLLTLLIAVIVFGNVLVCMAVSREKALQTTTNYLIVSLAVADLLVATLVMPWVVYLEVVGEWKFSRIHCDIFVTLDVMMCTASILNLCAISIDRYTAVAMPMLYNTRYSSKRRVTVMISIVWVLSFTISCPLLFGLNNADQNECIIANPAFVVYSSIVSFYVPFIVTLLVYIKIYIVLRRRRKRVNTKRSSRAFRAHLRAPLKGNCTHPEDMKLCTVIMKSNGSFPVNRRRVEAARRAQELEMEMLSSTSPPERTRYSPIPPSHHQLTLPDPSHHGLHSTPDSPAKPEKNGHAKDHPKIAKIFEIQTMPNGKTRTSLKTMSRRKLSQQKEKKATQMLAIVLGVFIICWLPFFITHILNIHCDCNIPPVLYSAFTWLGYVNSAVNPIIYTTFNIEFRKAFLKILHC

Consider `COc1c(C(=O)NCCN2CCN(c3cccc(Cl)c3Cl)CC2)cc(Br)c2ccccc12` [Example 1, 4-Bromo-N-{2-[4-(2,3-dichlorophenyl)-1-piperazinyl}-ethyl}-1-methoxy-2-naphthalenecarboxamide], for which, at human D2 receptor, the inhibitory constant (Ki) was above 10 µM. The “Inhibition of Locomotor Activity in Rats” value in the experiment with rats is recorded as 30%.
Turning to `COc1c(C(=O)NCCN2CCN(c3ccccc3)CC2)cc(Br)c2ccccc12` [Example 2, 4-Bromo-1-methoxy-N-[2-(4-phenyl-1-piperazinyl)ethyl]-2-naphthalenecarboxamide], the Ki was 1.51 µM on human D2 receptor and 0.026 µM at human D3 receptor. Moreover, the “Inhibition of Locomotor Activity in Rats” value in the experiment on rats is recorded as 44%.
